According to patent US10092491B2, “Skin renewal enhancer” (priority 2015, dated 2018):

Test: Solubilization in anhydrous polar solvents
Assay type: physicochemical
Settings: 25° C.
Method: It was unexpectedly discovered that both hydroxy acids and urea can be fully solubilized in anhydrous solvent at concentrations suitable for use as a chemical peel. Illustratively, for a peeling activity in the provided compositions and systems the hydroxy acid and urea must be present at a concentration of 8-10% or greater, with much greater efficacy at 10% or greater. It was discovered that anhydrous polar solvents can fully solubilize (i.e. no observable haze at 25° C.) both hydroxy acids and urea up to concentrations of 25%, thereby allowing significant efficacy when applied to the skin. The use of anhydrous glycerin (as one example) alone or optionally with or substituted by other anhydrous polar solvents (e.g. anhydrous polar solvents such as propylene glycol, butylene glycol, dimethylisosorbide, etc.) allows for the elimination of water and the prevention of the “burn” experienced in prior systems.

concentration fully solubilized (no observable haze): ≤ 25%
Structure (SMILES): NC(N)=O [urea]
